Here are results for five molecules from patent US20240293401A1, “COMBINATION THERAPY WITH AN LXR AGONIST AND AN INHIBITOR COMPOUND” (Asteroid Therapeutics, priority 2023, published 2024).

Data set [1] deals with glioblastoma, prostate cancer, and breast cancer cells. The conditions noted are these: cited from earlier work.
Data set [2] in a line: Mouse study: liver triglycerides after 5 days of daily dosing. Type of data set: in vivo, mice. The settings on record: for Average liver trig: daily for 5 days, 4 hours post dose on day 5. On the procedure: (§1) Mice were dosed daily with either: • a. the LXR agonist GW3965 orally at specified concentrations for 5-days, • b. the LXR inverse agonist SR9238 intraperitoneally at specified concentrations for 5-days, or • c. both drugs simultaneously at specified concentrations for 5-days.
(§2) Four hours after the final treatment on day 5, mice were euthanized and tissues were collected.

The test system of another data set is β-cells. The conditions noted are these: cited from earlier work.
The test system of the next data set is Abca1. In words: Mouse study: expression of the LXR target gene Abca1 in the brain after 5 days of daily dosing. Type of data set: in vivo, mice. The settings on record: for Average ABCA1 FC vs. vehicle (brain): daily for 5 days, 4 hours post dose on day 5. As to the method:
as §1, §2

The mark [3] stands for this setting: SR9238 30 mg/kg intraperitoneally.
The mark [4] stands for this setting: SR9238 60 mg/kg intraperitoneally.

Take `CC(C)CC[C@@H](O)[C@@H](C)[C@H]1CC[C@H]2[C@@H]3CC=C4C[C@@H](O)CC[C@]4(C)[C@H]3CC[C@]12C` [22(R)-hydroxycholesterol]: the “proliferation of glioblastoma, prostate cancer, and breast cancer cells (in words)” value in data set [1] was “suppress the proliferation”.
Take `CC(C)[C@@H](O)CC[C@@H](C)[C@H]1CC[C@H]2[C@@H]3CC=C4C[C@@H](O)CC[C@]4(C)[C@H]3CC[C@]12C` [24(S)-hydroxycholesterol]: the “proliferation of glioblastoma, prostate cancer, and breast cancer cells (in words)” value in data set [1] is listed as “suppress the proliferation”.
For `O=C(O)Cc1cccc(OCCCN(Cc2cccc(C(F)(F)F)c2Cl)CC(c2ccccc2)c2ccccc2)c1` [GW-3965], the values for the Average liver trig in data set [2] (GW-3965 15 mg/kg orally), in data set [2] (GW-3965 30 mg/kg orally) and in data set [2] (GW-3965 60 mg/kg orally) were 16.3 mg/g, 18.4 mg/g and 29.2 mg/g, respectively. In data set [2] (GW-3965 alone, 5 days of daily treatment), the “liver triglyceride concentrations (in words)” value was “increased liver triglyceride concentrations”. In addition, the “effect on β-cells (in words)” value in the data set with β-cells is “interfere with mitochondrial metabolism and metabolism-independent processes in β-cells”. Besides, the “Average ABCA1 FC vs. vehicle (brain)” value amounted to 1.6 in the data set on Abca1 (GW-3965 15 mg/kg orally), 2.0 in the data set on Abca1 (GW-3965 30 mg/kg orally) and 2.8 in the data set on Abca1 (GW-3965 60 mg/kg orally). Also, the “expression of the LXR target gene Abca1 (in words)” value in the data set with Abca1 (GW-3965 alone, 5 days of daily treatment, brains of mice) was “increased expression”.
For the molecule `CCOC(=O)c1ccc(CN(Cc2ccc(-c3cccc(S(C)(=O)=O)c3)cc2)S(=O)(=O)c2c(C)cc(C)cc2C)o1` [SR9238], the Average liver trig in data set [2] (setting [3]) worked out at 7.78 mg/g; in data set [2] (setting [4]), 8.4 mg/g. Moreover, the “Average ABCA1 FC vs. vehicle (brain)” value was found to be 0.9 with Abca1 (setting [3]) and 1.2 in the data set with Abca1 (setting [4]).
With `O=S(=O)(c1ccccc1)N(CC(F)(F)F)c1ccc(C(O)(C(F)(F)F)C(F)(F)F)cc1` [T0901317], the “effect on β-cells (in words)” value in the data set with β-cells was “interfere with mitochondrial metabolism and metabolism-independent processes in β-cells”.
